According to patent EP0507256A2, “Tyrosine phosphorylation in protozoa” (Bristol-Myers Squibb Company, priority 1991, dated 1992):

Experiments:
T. brucei cells = test: Tyrosine phosphorylation with tyrosine kinase inhibitors in the presence of orthovanadate; type: cell-based; conditions: in the presence of the tyrosine phosphatase inhibitor orthovanadate
Text: Many inhibitors of mammalian tyrosine kinase have been investigated by the present inventors to determine if tyrosine phosphorylation is reduced in the tested organisms.

[1] = tested on: TREU 667 procyclic form cells; test: Effect of orthovanadate on cell growth (optical density at 600 nm); type: cell-based, T. brucei
Procedure: (§1) In the drawings: • FIGURE 1 illustrates the specificity of reactivity with anti-p-tyr antibodies. Lysate from the monomorphic trypanosome strain EATRO 164, clone IHRI 1, procyclic forms (10⁷ cells) was loaded per lane on a 10% sodium dodecyl sulfate polyacrylamide gel electrophoresis (SDS-PAGE) gel. Proteins were transferred to polyvinylidene difluoride membranes, incubated with anti-p-tyr antibodies, and followed by treatment with ¹²⁵I-protein A. Panel A: 0.25 µg ml⁻¹ anti-p-tyr antibodies. Panel B: 1 µg ml⁻¹ anti-p-tyr antibodies, plus 40 mM phenyl phosphate. Molecular weight markers are indicated. Lanes 1 and 2 differ only in the concentration of orthovanadate used during cell processing. • FIGURE 2 illustrates immunoprecipitation and phosphoamino acid analysis. Panel 2A: Western analysis of anti-p-tyr immunoprecipitates. Immunoreactive proteins were enriched by immunoprecipitation as described herein. […] Growth of the parasites was monitored by measuring the optical density at 600 nm over ranges which were previously established to be linearly related to cell density. • FIGURE 6 illustrates the effect of orthovanadate on protein phosphorylation and tyrosine phosphorylation in TREU 667 procyclic forms. […] The cells were rinsed three times and an aliquot equivalent to 2.3 x 10⁵ cells was analyzed by SDS-PAGE and autoradiography. […]

TREU 667 procyclic forms [2] = test: Anti-p-tyr immunoblot (Western) analysis of protein tyrosine phosphorylation after orthovanadate treatment; type: cell-based, T. brucei; parameters: level of protein tyrosine phosphorylation of specific substrates, particularly ptp40 and ptp42: dose or concentration left out as unconfirmed
Procedure: In the drawings: • FIGURE 1 illustrates the specificity of reactivity with anti-p-tyr antibodies. Lysate from the monomorphic trypanosome strain EATRO 164, clone IHRI 1, procyclic forms (10⁷ cells) was loaded per lane on a 10% sodium dodecyl sulfate polyacrylamide gel electrophoresis (SDS-PAGE) gel. Proteins were transferred to polyvinylidene difluoride membranes, incubated with anti-p-tyr antibodies, and followed by treatment with ¹²⁵I-protein A. Panel A: 0.25 µg ml⁻¹ anti-p-tyr antibodies. Panel B: 1 µg ml⁻¹ anti-p-tyr antibodies, plus 40 mM phenyl phosphate. Molecular weight markers are indicated. Lanes 1 and 2 differ only in the concentration of orthovanadate used during cell processing. • FIGURE 2 illustrates immunoprecipitation and phosphoamino acid analysis. Panel 2A: Western analysis of anti-p-tyr immunoprecipitates. Immunoreactive proteins were enriched by immunoprecipitation as described herein. Each lane was loaded with material corresponding to the same amount of cell lysate. Lanes: 1) total cell lysate; 2) lysate cleared of proteins reactive with anti-p-tyr; 3) eluate from anti-p-tyr immunoprecipitation. Panel 2B: Two-dimensional phosphoamino acid analysis. Procyclic forms were metabolically labelled with [³²P] orthophosphate, and proteins reactive with the anti-p-tyr antiserum were enriched by immunoprecipitation as described above. The proteins were hydrolyzed and phosphoamino acids separated by two-dimensional electrophoresis. […] Lysate of 10⁷ cells from each stage of the life cycle was loaded. TREU 667 is a pleiomorphic strain; EATRO 164 is a monomorphic strain. Independent samples produced by difluoromethylornithine (DFMO) treatment are indicated (D). PF 100% mid-log phase procyclic culture forms. SL Slender bloodforms (EATRO, 100% slender; TREU 75% slender). INT Intermediate bloodforms (approximately 20% slender, 60% intermediate, 20% late intermediate-stumpy). ST Stumpy bloodforms (>60% late intermediate-stumpy, the remainder intermediate). • FIGURE 4 illustrates the solubility analysis of immunoreactive proteins. TREU 667 procyclic form cells were lysed in buffer containing various detergents as indicated. Lanes: 1) 1% NP-40 + 0.25% deoxycholate; 2) 1% NP-40; 3) 2% SDS; 4) freeze/thaw lysis. Solubilized proteins (S), insoluble pellets (P), total lysate (T). • FIGURE 5 illustrates the effect of orthovanadate on cell growth. […] Growth of the parasites was monitored by measuring the optical density at 600 nm over ranges which were previously established to be linearly related to cell density. • FIGURE 6 illustrates the effect of orthovanadate on protein phosphorylation and tyrosine phosphorylation in TREU 667 procyclic forms. […] The cells were rinsed three times and an aliquot equivalent to 2.3 x 10⁵ cells was analyzed by SDS-PAGE and autoradiography. […]

TREU 667 procyclic forms [3] = test: SDS-PAGE analysis of proteins of cells metabolically labelled with [32P]-orthophosphate; type: cell-based, T. brucei; conditions: 1.5 µM orthovanadate, started one hour before overnight labelling (FIGURE 6C)
Procedure: as §1

## O=c1c(-c2ccc(O)cc2)coc2cc(O)cc(O)c12 [genestin]
T. brucei cells
  tyrosine phosphorylation in T. brucei cells: decreased tyrosine phosphorylation

## [O]=[V]([O-])([O-])[O-] [orthovanadate]
[1]; 1.5 µM orthovanadate
  growth and motility of procyclic forms: nonmotile but continued to divide, albeit more slowly
[1]; procyclic forms, concentrations approaching those used to cause phenotypic transformation of mammalian cells (30 µM)
  toxicity to trypanosomes: toxic
TREU 667 procyclic forms [2]; 15 µM orthovanadate (FIGURE 6B)
  time until tyrosine phosphorylation was maximal: ≤ 2 h
TREU 667 procyclic forms [2]; after 6 hours in orthovanadate (FIGURE 6A)
  level of protein tyrosine phosphorylation of specific substrates, particularly ptp40 and ptp42: increased dramatically
TREU 667 procyclic forms [2]; after the drug was removed (cells grown in orthovanadate, rinsed free of drug)
  time until tyrosine phosphorylation returned to near control levels: ≤ 24 h
TREU 667 procyclic forms [3]
  pattern of 32P-labelled proteins observed after SDS-PAGE: the same in control and treated cells

## C[C@@H]1C[C@@H]([C@H](O)CC2CC(=O)NC(=O)C2)C(=O)[C@@H](C)C1 [cycloheximide]
TREU 667 procyclic forms [2]
  effect of cycloheximide on increased tyrosine phosphorylation mediated by orthovanadate: does not prevent increased tyrosine phosphorylation
